Here are results for 23 molecules from patent publication US10087187B2, “Imidazopyridazine derivatives as PI3KB inhibitors” (Janssen Pharmaceutica NV, priority 2014, dated 2018).

Broadly, the Kd is a measure of binding affinity in units of concentration. For orientation: IC50 means the concentration that gives 50% inhibition.

Test [1] has as its target PIK3Cγ_h (Homo sapiens (Human), UniProt P48736). Kind of test: KINOMEscan enzyme binding assay, PIK3Cγ. The note with it: DiscoveRx. Here is the method:
(§1) Enzyme Binding Assays (KINOMEscan®) Kinase enzyme binding affinities of compounds disclosed herein were determined using the KINOMEscan technology performed by DiscoveRx Corporation, San Diego, Calif., USA (www.kinomescan.com).

The target in test [2] is PIK3Cδ_h (Homo sapiens (Human), UniProt O00329). Briefly: KINOMEscan enzyme binding assay, PIK3Cδ. The note with it: DiscoveRx. As for the experimental part:
(§2) Enzyme Binding Assays (KINOMEscan®) Kinase enzyme binding affinities of compounds disclosed herein were determined using the KINOMEscan technology performed by DiscoveRx Corporation, San Diego, Calif., USA (www.kinomescan.com). Table A reports the obtained Kd values (nM), with the Kd being the inhibitor binding constant: […]

The target in test [3] is PIK3Cβ_h (Homo sapiens (Human), UniProt P42338). Kind of test: KINOMEscan enzyme binding assay, PIK3Cβ. The note with it: DiscoveRx. Here is the method:
as §2

Test [4] addresses PIK3Cα_h (Homo sapiens (Human), UniProt P42336). Kind of test: KINOMEscan enzyme binding assay, PIK3Cα. The following applies: DiscoveRx. As for the experimental part: as §1
Test [5] deals with Akt phosphorylated at Ser473 in PC-3 cells. Kind of test: Cellular assay: phosphorylation of Akt (Ser473) in PC-3 cells, MSD ELISA. The format is cell-based. The following applies: 60 min incubation with compound, read-out: IC50 pAkt_S473. The method in brief: (§3)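 PC-3 cells cultured 24 h in DMEM/10% FCS were exposed to compound for 60 min at 37° C, with 0.3% DMSO. Lysates were analysed by MSD electrochemiluminescent sandwich ELISA using phospho-Ser473 or phospho-Thr308 capture and anti-total Akt detection antibodies. IC50 was derived by nonlinear sigmoidal fitting of % inhibition over five concentrations.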

Test [6] addresses MTOR_h (Homo sapiens (Human), UniProt P42345). Kind of test: KINOMEscan enzyme binding assay, MTOR. The note with it: DiscoveRx. As for the experimental part:
as §1

Test [7] has as its system Akt phosphorylated at Thr308 in PC-3 cells. Kind of test: Cellular assay: phosphorylation of Akt (Thr308) in PC-3 cells, MSD ELISA. The format is cell-based. The following applies: 60 min incubation with compound, read-out: IC50 pAkt_Thr308. The method in brief:
as §3
(In general: ELISA stands for enzyme-linked immunosorbent assay.)

Read-outs that look alike come from different tables or passages of the source. Bounds are passed on as bounds.

PIK3Cγ_h, sequence (P48736 whole entry): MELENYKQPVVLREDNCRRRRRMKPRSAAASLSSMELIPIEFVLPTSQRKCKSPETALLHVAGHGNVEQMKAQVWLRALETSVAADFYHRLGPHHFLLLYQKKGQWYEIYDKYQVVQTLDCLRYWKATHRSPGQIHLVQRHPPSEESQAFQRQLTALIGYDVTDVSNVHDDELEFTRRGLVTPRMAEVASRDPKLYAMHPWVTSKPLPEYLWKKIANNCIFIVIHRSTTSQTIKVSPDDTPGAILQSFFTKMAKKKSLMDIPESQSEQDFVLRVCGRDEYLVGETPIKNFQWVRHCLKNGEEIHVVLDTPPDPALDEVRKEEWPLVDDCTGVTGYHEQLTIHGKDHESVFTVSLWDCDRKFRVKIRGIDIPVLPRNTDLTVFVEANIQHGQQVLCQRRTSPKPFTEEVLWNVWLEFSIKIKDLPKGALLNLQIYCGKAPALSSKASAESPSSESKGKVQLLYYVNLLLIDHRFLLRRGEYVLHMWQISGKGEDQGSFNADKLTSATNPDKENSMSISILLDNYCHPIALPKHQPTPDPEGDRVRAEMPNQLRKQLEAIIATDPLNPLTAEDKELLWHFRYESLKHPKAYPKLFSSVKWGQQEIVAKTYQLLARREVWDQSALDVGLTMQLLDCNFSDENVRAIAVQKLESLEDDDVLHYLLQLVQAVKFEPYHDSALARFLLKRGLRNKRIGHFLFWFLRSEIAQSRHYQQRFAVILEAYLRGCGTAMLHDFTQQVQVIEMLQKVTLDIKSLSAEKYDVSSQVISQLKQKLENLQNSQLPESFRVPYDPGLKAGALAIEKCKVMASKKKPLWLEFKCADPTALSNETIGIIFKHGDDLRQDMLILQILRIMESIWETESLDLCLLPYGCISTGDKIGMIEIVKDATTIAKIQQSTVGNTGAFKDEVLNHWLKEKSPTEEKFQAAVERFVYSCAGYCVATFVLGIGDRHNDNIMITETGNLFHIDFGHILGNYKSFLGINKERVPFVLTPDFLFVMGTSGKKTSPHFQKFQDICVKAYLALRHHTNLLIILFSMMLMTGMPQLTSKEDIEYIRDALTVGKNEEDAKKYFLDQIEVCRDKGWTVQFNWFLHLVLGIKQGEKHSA
PIK3Cβ_h, sequence (P42338 whole entry): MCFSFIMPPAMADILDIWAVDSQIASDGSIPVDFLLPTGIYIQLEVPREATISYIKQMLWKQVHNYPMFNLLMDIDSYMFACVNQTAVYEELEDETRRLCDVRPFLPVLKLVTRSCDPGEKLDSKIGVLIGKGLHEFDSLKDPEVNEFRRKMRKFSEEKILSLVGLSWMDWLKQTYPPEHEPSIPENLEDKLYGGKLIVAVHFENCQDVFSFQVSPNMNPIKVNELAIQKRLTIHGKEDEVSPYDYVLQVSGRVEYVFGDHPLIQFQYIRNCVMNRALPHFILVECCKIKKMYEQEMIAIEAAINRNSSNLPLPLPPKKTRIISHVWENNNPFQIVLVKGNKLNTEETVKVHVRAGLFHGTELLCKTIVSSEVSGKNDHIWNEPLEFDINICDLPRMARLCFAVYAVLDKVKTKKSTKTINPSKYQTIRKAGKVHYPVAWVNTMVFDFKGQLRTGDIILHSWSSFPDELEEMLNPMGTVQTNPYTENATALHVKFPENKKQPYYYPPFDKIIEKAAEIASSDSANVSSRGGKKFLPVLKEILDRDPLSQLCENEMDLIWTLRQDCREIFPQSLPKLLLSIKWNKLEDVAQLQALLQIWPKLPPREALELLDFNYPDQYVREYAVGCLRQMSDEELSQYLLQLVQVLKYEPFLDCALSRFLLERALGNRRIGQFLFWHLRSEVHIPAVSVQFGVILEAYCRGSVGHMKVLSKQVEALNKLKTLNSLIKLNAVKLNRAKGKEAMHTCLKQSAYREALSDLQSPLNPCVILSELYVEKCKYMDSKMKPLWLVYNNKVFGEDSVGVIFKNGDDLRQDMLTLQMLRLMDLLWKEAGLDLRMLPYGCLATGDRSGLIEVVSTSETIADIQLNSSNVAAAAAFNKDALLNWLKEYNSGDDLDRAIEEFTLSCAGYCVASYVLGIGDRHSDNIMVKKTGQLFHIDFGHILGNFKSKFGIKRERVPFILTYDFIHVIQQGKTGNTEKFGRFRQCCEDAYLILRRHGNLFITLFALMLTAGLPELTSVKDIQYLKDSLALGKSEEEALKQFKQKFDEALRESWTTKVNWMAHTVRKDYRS
PIK3Cα_h, sequence (P42336 whole entry): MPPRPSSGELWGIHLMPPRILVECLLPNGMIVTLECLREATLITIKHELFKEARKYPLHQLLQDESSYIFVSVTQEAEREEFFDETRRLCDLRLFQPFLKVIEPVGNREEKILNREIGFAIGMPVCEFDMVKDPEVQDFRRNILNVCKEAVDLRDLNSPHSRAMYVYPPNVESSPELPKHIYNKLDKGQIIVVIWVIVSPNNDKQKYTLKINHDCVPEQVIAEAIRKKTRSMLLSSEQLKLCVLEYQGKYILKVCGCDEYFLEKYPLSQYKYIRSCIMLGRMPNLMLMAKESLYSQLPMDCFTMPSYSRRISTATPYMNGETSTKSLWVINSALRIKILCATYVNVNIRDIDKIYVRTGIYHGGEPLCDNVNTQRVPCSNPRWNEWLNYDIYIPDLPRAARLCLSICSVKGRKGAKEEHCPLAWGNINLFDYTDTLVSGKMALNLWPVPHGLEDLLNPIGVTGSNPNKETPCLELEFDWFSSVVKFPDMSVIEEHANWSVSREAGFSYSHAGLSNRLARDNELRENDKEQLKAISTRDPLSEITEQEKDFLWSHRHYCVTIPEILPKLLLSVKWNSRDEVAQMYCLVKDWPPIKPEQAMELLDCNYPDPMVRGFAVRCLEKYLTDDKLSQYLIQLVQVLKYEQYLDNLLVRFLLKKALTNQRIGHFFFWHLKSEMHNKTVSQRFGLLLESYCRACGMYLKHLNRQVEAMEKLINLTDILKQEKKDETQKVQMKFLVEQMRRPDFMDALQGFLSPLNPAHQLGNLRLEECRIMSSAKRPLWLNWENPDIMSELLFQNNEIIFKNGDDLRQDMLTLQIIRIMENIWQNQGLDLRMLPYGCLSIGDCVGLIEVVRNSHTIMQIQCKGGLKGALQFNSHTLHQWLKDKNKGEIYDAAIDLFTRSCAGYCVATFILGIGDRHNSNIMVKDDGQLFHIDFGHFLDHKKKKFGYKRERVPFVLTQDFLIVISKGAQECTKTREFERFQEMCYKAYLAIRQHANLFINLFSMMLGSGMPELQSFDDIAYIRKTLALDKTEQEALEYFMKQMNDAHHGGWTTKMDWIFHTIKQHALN
PIK3Cδ_h, sequence (O00329 whole entry): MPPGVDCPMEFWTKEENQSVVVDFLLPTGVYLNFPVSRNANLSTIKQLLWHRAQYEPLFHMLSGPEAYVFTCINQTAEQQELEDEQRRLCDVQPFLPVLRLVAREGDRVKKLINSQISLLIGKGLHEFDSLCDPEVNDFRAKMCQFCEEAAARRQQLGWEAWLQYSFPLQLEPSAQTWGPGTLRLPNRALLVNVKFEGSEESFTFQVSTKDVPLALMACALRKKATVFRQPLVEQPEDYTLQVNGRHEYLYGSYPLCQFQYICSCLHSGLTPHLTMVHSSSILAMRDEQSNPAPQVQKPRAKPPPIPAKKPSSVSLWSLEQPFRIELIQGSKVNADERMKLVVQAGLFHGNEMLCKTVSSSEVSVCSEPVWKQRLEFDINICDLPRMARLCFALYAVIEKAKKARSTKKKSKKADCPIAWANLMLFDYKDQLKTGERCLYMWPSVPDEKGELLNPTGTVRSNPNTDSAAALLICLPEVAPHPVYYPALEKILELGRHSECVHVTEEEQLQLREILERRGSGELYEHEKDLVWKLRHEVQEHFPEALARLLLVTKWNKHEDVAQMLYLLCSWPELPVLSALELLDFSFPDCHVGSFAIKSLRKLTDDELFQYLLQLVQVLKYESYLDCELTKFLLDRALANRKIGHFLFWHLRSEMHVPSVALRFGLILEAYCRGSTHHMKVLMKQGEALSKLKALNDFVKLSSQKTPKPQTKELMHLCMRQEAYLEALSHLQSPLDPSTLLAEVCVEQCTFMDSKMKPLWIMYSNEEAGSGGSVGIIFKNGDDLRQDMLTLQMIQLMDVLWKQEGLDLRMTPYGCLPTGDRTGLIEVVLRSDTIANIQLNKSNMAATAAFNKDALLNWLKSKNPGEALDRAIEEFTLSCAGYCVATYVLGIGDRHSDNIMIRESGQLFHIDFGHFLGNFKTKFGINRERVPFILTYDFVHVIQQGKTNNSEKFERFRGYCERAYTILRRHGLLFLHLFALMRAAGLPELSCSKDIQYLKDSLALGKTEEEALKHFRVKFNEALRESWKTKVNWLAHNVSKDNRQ

As to `Cc1nc2c(-c3ccn[nH]3)cc(N3CCOCC3)nn2c1Nc1ccccc1N1CCOCC1` [Compound 89], the Kd in test [1] worked out at 851 nM; in test [2], 44 nM; in test [3] it was 22 nM; in test [4] it was 631 nM; in test [6], 85 nM. Moreover, the IC50 in test [5] (Homo sapiens, PC-3, 1 h) came out at 115 nM; in test [7] (Homo sapiens, PC-3, 1 h), 83 nM.

As to `Cc1nc2c(N)cc(N3CCOCC3)nn2c1Nc1cccc(F)c1CNC(C)CO` (centres unmarked) [Compound 71], the Kd in test [1] is over 30200 nM; in test [2] it was 75 nM; in test [3] it was 6 nM; in test [4], 17000 nM; in test [6] it was over 30200 nM. Besides, the IC50 is 246 nM in test [5] (Homo sapiens, PC-3, 1 h) and 107 nM in test [7] (Homo sapiens, PC-3, 1 h).

In the case of `Cc1nc2c(N)cc(N3CCOCC3)nn2c1Nc1cccc(C(F)(F)F)c1CN1CCC(S(C)(=O)=O)CC1` [Compound 54], the Kd in test [1] is over 30200 nM; in test [2], 490 nM; in test [3], 12 nM; in test [4], 16200 nM; in test [6] it was over 30200 nM. The 50% inhibitory concentration (IC50) in test [5] (Homo sapiens, PC-3, 1 h) came to 200 nM; in test [7] (Homo sapiens, PC-3, 1 h), 98 nM.

For `Cc1nc2c(N)cc(N3CCOCC3)nn2c1Nc1cccc(C(F)(F)F)c1CN1CC(O)C1` [Compound 52], the Kd in test [1] stood at 4790 nM; in test [2], 40 nM; in test [3], 1.9 nM; in test [4] it was 5750 nM; in test [6] it was 10700 nM. Further, the IC50 in test [5] (Homo sapiens, PC-3, 1 h) was determined as 44 nM; in test [7] (Homo sapiens, PC-3, 1 h), 33 nM.

In the case of `Cc1nc2c(N)cc(N3CCOCC3)nn2c1Nc1ccccc1CN1CCOCC1` [Compound 69], the Kd turned out to be 24500 nM in test [1]; 56 nM in test [2]; 15 nM in test [3]; 5370 nM in test [4]; 1510 nM in test [6]. Also, the half-maximal inhibitory concentration (IC50) was determined as 186 nM in test [5] (Homo sapiens, PC-3, 1 h) and 151 nM in test [7] (Homo sapiens, PC-3, 1 h).

With `Cc1c(F)cccc1Cc1c(CO)nc2c(N)cc(N3CCOCC3)nn12` [Compound 93], the Kd in test [1] was 3890 nM; in test [2], 166 nM; in test [3], 2.7 nM; in test [4] it was over 30200 nM; in test [6] it was 1900 nM. Moreover, the IC50 was found to be 174 nM in test [5] (Homo sapiens, PC-3, 1 h) and 120 nM in test [7] (Homo sapiens, PC-3, 1 h).

In the case of `Cc1nc2c(N)cc(N3CCOCC3)nn2c1Nc1cccc(C(F)(F)F)c1CN1CC(S(C)(=O)=O)C1` [Compound 48], the Kd in test [1] is 6170 nM; in test [2], 34 nM; in test [3], 1.7 nM; in test [4], 2750 nM; in test [6], over 30200 nM. The IC50 in test [5] (Homo sapiens, PC-3, 1 h) was 98 nM; in test [7] (Homo sapiens, PC-3, 1 h) it was 55 nM.

For `Cc1nc2c(C(N)=O)cc(N3CCOCC3)nn2c1Nc1cccc(C(F)(F)F)c1C` [Compound 40], the Kd was 3900 nM in test [1]; 372 nM in test [2]; 4 nM in test [3]; 2040 nM in test [4]; 20100 nM in test [6]. Also, the IC50 worked out at 105 nM in test [5] (Homo sapiens, PC-3, 1 h) and 60 nM in test [7] (Homo sapiens, PC-3, 1 h).

As to `Cc1c(Cc2c(C(C)O)nc3c(-c4c[nH]cn4)cc(N4CCOCC4)nn23)cccc1C(F)(F)F` (centres unmarked) [Compound 30], the Kd came out at 4570 nM in test [1]; 129 nM in test [2]; 2.6 nM in test [3]; 1180 nM in test [4]; 2190 nM in test [6]. The IC50 in test [5] (Homo sapiens, PC-3, 1 h) was 59 nM; in test [7] (Homo sapiens, PC-3, 1 h) it was about 42 nM.

Turning to `Cc1nc2c(N)cc(N3CCOCC3)nn2c1Cc1cccc(F)c1CO` [Compound 94], the Kd in test [1] turned out to be 10500 nM; in test [2], 1410 nM; in test [3], 18 nM; in test [4] it was 16600 nM; in test [6], 5750 nM. Also, the IC50 is over 513 nM in test [5] (Homo sapiens, PC-3, 1 h) and 417 nM in test [7] (Homo sapiens, PC-3, 1 h).

With `Cc1nc2c(N)cc(N3CCOCC3)nn2c1Nc1cccc(C(F)(F)F)c1CN1CCC2(C1)CS(=O)(=O)C2` [Compound 49], the Kd is over 30200 nM in test [1]; 331 nM in test [2]; 9 nM in test [3]; 13500 nM in test [4]; over 30200 nM in test [6]. The IC50 in test [5] (Homo sapiens, PC-3, 1 h) was 45 nM; in test [7] (Homo sapiens, PC-3, 1 h) it was about 21 nM.

As to `Cc1nc2c(N)cc(N3CCOCC3)nn2c1Nc1cccc(C(F)(F)F)c1CNC(C)CO` (centres unmarked) [Compound 56], the dissociation constant (Kd) is 8680 nM in test [1]; 16 nM in test [2]; 1.2 nM in test [3]; 1710 nM in test [4]; over 30200 nM in test [6]. In addition, the values for the IC50 in test [5] and in test [7] were about 7 nM and about 5 nM, respectively.

As for `Cc1nc2c(C(=O)O)cc(N3CCOC(C)C3)nn2c1Cc1cccc(C(F)(F)F)c1C` (centres unmarked) [Compound 28], the Kd was determined as 5500 nM in test [1]; 83 nM in test [2]; 2.5 nM in test [3]; 2090 nM in test [4]; 21400 nM in test [6]. For the same molecule, the IC50 was about 407 nM in test [5] (Homo sapiens, PC-3, 1 h) and 380 nM in test [7] (Homo sapiens, PC-3, 1 h).

`Cc1c(Cc2c(CO)nc3c(-c4c[nH]cn4)cc(N4CCOC(C)C4)nn23)cccc1C(F)(F)F` (centres unmarked) [Compound 25]: the Kd was over 30200 nM in test [1]; over 30200 nM in test [2]; 200 nM in test [3]; over 30200 nM in test [4]; 1180 nM in test [6]. The results for the IC50 in test [5] and in test [7] were 447 nM and over 513 nM, respectively.

Take `Cc1nc2c(N)cc(N3CCOCC3)nn2c1Cc1cccc(F)c1CNC(C)CO` (centres unmarked) [Compound 103]: the Kd was 31600 nM in test [1]; 1000 nM in test [2]; 74 nM in test [3]; over 30200 nM in test [4]; 24500 nM in test [6]. Also, the IC50 in test [5] (Homo sapiens, PC-3, 1 h) is over 423 nM; in test [7] (Homo sapiens, PC-3, 1 h), over 382 nM.

On to `Cc1c(Cc2c(CO)nc3c(N)cc(N4CCOCC4)nn23)cccc1C(F)(F)F` [Compound 14b], for which the Kd in test [1] was over 8130 nM; in test [2], 253 nM; in test [3], 1.5 nM; in test [4], over 10000 nM; in test [6] it was over 30200 nM. In addition, the IC50 in test [5] amounted to 60 nM; in test [7] it was 38 nM.

Regarding `Cc1c(Cl)cccc1Cc1c(CO)nc2c(-c3c[nH]cn3)cc(N3CCOCC3)nn12` [Compound 67], the Kd in test [1] was 324 nM; in test [2] it was 17 nM; in test [3], 0.5 nM; in test [4], 195 nM; in test [6] it was 186 nM. In addition, the IC50 in test [5] (Homo sapiens, PC-3, 1 h) was 23 nM; in test [7] (Homo sapiens, PC-3, 1 h), 74 nM.

On to `Cc1c(Cc2c(CO)nc3c(-c4c[nH]cn4)cc(N4CCOC(C)C4)nn23)cccc1C(F)(F)F` (centres unmarked) [Compound 27], for which the Kd in test [1] worked out at 479 nM; in test [2], 58 nM; in test [3], 2.4 nM; in test [4], 617 nM; in test [6] it was 447 nM. In addition, the concentration for half-maximal inhibition (IC50) in test [5] worked out at 42 nM; in test [7] it was 14 nM.

For the molecule `Cc1nc2c(N)cc(N3CCOCC3)nn2c1Nc1cccc(C(F)(F)F)c1CN1CCC(S(C)(=O)=O)C1` (centres unmarked) [Compound 47], the Kd in test [1] is 20900 nM; in test [2], 47 nM; in test [3], 2.5 nM; in test [4], 10500 nM; in test [6], over 30200 nM. Moreover, the half-maximal inhibitory concentration (IC50) came out at 59 nM in test [5] (Homo sapiens, PC-3, 1 h) and 44 nM in test [7] (Homo sapiens, PC-3, 1 h).

As to `Nc1cc(N2CCOCC2)nn2c(Cc3cccc(C(F)(F)F)c3C3CCNCC3)c(CO)nc12` [Compound 104], the Kd in test [1] is 15100 nM; in test [2] it was 138 nM; in test [3] it was 0.7 nM; in test [4], 9330 nM; in test [6] it was over 30200 nM. Further, the IC50 amounted to 78 nM in test [5] (Homo sapiens, PC-3, 1 h) and 29 nM in test [7] (Homo sapiens, PC-3, 1 h).

Regarding `Cc1nc2c(N)cc(N3CCOCC3)nn2c1Nc1cccc(C(F)(F)F)c1CN1CCS(=O)(=O)CC1` [Compound 43], the Kd in test [1] was 7760 nM; in test [2], 47 nM; in test [3], 2 nM; in test [4], 3310 nM; in test [6], over 30200 nM. Besides, the half-maximal inhibitory concentration (IC50) was about 339 nM in test [5] (Homo sapiens, PC-3, 1 h) and 170 nM in test [7] (Homo sapiens, PC-3, 1 h).

On to `Cc1nc2c(C(N)=O)cc(N3CCOCC3)nn2c1Cc1cccc(C(F)(F)F)c1C` [Compound 10], for which the Kd was over 30200 nM in test [1]; 12600 nM in test [2]; 20 nM in test [3]; over 30200 nM in test [4]; over 30200 nM in test [6]. Besides, the IC50 in test [5] (Homo sapiens, PC-3, 1 h) was 501 nM; in test [7] (Homo sapiens, PC-3, 1 h) it was over 513 nM.

Consider `Cc1nc2c(N)cc(N3CCOCC3)nn2c1Cc1cccc(F)c1C1CCNCC1` [Compound 106], for which the dissociation constant Kd in test [1] was 5010 nM; in test [2] it was 372 nM; in test [3], 0.5 nM; in test [4], 2750 nM; in test [6], over 30200 nM. The concentration for half-maximal inhibition (IC50) in test [5] (Homo sapiens, PC-3, 1 h) worked out at 174 nM; in test [7] (Homo sapiens, PC-3, 1 h) it was 129 nM.
